Series [1] deals with human breast cancer cell line MCF-7. Description: Test (c): inhibition of growth of human breast cancer cell line MCF-7 in cell culture. It counts as cell-based. The following applies: MCF7, MCF-7 cell culture growth. The source says: (c) An assay which determines the ability of a test compound to inhibit the growth of the human breast cancer cell line MCF-7 in cell culture.

The test system of series [2] is leukaemia cell line L1210. Description: Test (b): inhibition of growth of leukaemia cell line L1210 in cell culture. The following applies: Mus musculus. In kind it is cell-based. An excerpt:
(b) An assay which determines the ability of a test compound to inhibit the growth of the leukaemia cell line L1210 in cell culture.

The target in series [3] is T1, thymidylate synthase (Mus musculus, UniProt P07607).
T1 construct: obtained in partially purified form from L1210 mouse leukaemia cells; endogenous in cells; host or cells: L1210 mouse leukaemia cells
T1 sequence (P07607 whole entry): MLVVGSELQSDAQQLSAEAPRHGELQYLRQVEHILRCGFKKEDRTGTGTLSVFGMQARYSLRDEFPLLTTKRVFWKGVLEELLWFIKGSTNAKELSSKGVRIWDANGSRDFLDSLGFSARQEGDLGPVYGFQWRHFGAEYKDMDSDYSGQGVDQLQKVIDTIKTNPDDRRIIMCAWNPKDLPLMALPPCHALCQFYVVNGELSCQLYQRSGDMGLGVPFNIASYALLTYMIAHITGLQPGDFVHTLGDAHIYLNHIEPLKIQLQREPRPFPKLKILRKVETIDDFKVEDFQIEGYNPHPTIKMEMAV
Description: Test (a): in vitro inhibition of thymidylate synthase (partially purified from L1210 mouse leukaemia cells). It counts as biochemical. The source says:
(a) An in vitro assay which determines the ability of a test compound to inhibit the enzyme thymidylate synthase.

For series [4], the system named is human breast, ovarian and liver cancer. The following applies: clinical trials; cited from earlier work.
For series [5] the following is noted: particularly liver and kidney; cited from earlier work.

We go through 4 compounds from patent publication US5955463A, “Quinazoline thymidylate synthase inhibitors” (Zeneca Limited, priority 1992, dated 1999).

Broadly, the IC50 is the midpoint of a concentration-inhibition curve. A higher IC50 goes with a need for much substance. Take `C#CCN(Cc1cc2c(=O)[nH]c(C)nc2cc1C)c1ccc(C(=O)N[C@@H](CCc2nnn[nH]2)C(=O)O)c(F)c1` [(2S)-2-{o-fluoro-p-[N-(2,7-dimethyl-4-oxo-3,4-dihydroquinazolin-6-ylmethyl)-N-(prop-2-ynyl)amino]benzamido}-4-(tetrazol-5-yl)butyric acid]: the IC50 in series [1] was approximately 10 nM; in series [2], approximately 20 nM.

On to `Cc1nc2cc(C)c(CN(C)c3ccc(C(=O)N[C@@H](CCc4nnn[nH]4)C(=O)O)c(F)c3)cc2c(=O)[nH]1` [(2S)-2-{o-fluoro-p-[N-(2,7-dimethyl-4-oxo-3,4-dihydroquinazolin-6-ylmethyl)-N-methylamino]benzamido}-4-(tetrazol-5-yl)butyric acid], for which the IC50 in series [1] is approximately 40 nM; in series [3], approximately 2 nM; in series [2], approximately 70 nM.

Take `C#CCN(Cc1ccc2nc(C)[nH]c(=O)c2c1)c1ccc(C(=O)N[C@@H](CCc2nnn[nH]2)C(=O)O)cc1` [(2S)-2-{p-[N-(2-methyl-4-oxo-3,4-dihydroquinazolin-6-ylmethyl)-N-(prop-2-ynyl)amino]benzamido}-4-(tetrazol-5-yl)butyric acid]: the figures for the IC50 in series [1], in series [3] and in series [2] were approximately 40 nM, approximately 13 nM and approximately 120 nM, respectively.

For the compound `C#CCN(Cc1ccc2nc(N)[nH]c(=O)c2c1)c1ccc(C(=O)N[C@@H](CCC(=O)O)C(=O)O)cc1` [CB3717], the “activity against human breast, ovarian and liver cancer” value in series [4] was “promising activity against human breast, ovarian and liver cancer”. For the same compound, in series [5], the “symptoms of toxicity in humans” value was “shows symptoms of toxicity in humans, particularly in relation to the liver and kidney”.
